Reference: PubChem BioAssay AID1959 (Broad Institute, 2009)
Calls of active or inactive are those of the source.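 The calls were made as follows: active = growth-inhibition EC50 no more than tenfold above the top tested dose; inconclusive = flat fit between 30% and 70% inhibition, or unreliable fit; inactive = EC50 more than tenfold above the top tested dose.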

Tested on: E. coli NEB5alpha growth, BacTiter-Glo luminescence, 4 h
Assay: antibacterial activity against E. coli NEB5alpha – luminescence, counter-screen for MEX-5/POS-1 RNA-binding inhibitor project, dose response (AID 1959);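 also: pUC19-transformed ampicillin-resistant cells grown in LB with ampicillin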

SMILES | EC50
C=CCN1C(=O)NC(=O)/C(=C/c2ccc(OCC(=O)Nc3ccc(C)cc3)cc2)C1=O | > 11 µM (inactive)
N=c1c(C(=O)NC2CCCCC2)cc2c(=O)n3ccccc3nc2n1Cc1cccnc1 | > 11 µM (inactive)
CCCCN(C)C(=O)c1cccc(OC2CCN(CC(C)(C)C)CC2)c1 | > 11 µM (inactive)
O=C(O)C1Nc2c(C(=O)N3CCOCC3)cccc2C2C=CCC12 (configuration not stated) | > 11 µM (inactive)
C=CCOc1cccc(C2C(C(=O)c3ccc(C)o3)=C(O)C(=O)N2c2nccs2)c1 (configuration not stated) | > 11 µM (inactive)
CCC(=O)OC1(C)C(=O)C=C2C=C(C3CC3)OC=C2C1=O (configuration not stated) | > 11 µM (inactive)
CCOCCCn1c(=NC(=O)c2cccs2)c(C#N)cc2c(=O)n3cccc(C)c3nc21 | > 11 µM (inactive)
CC(=O)Nc1ccc(N=Cc2nc(-c3ccc(C)cc3)oc2O)cc1 | > 11 µM (inactive)
Cc1n[nH]c(=S)c2nn(-c3cccc(Cl)c3)c(C)c12 | > 11 µM (inactive)
CC(=C\c1ccco1)/C=C1/SC(=S)N(CC(=O)O)C1=O | > 11 µM (inactive)
CCOC(=O)c1ccc2c(c1)C1C=CCC1C(C(=O)OCC)N2 (configuration not stated) | > 11 µM (inactive)
COC(=O)C1CSc2[nH]c(=O)sc2C1c1ccccc1 (configuration not stated) | > 11 µM (inactive)
CN1C[C@H](CO)C=C2c3cccc4[nH]cc(c34)C[C@H]21 | > 11 µM (inactive)
COc1ccccc1NC(=O)/C(C#N)=C/c1cc([N+](=O)[O-])ccc1N1CCCC1 | > 11 µM (inactive)
CN1C(=O)/C(=C\c2ccc(N3CCCCC3)o2)C(=O)NC1=S | > 11 µM (inactive)
CCC(=S)/C=C1\Sc2ccc3ccccc3c2N1CCCS(=O)(=O)O | > 11 µM (inactive)
N=c1c(C(=O)NC2CCCCC2)cc2c(=O)n3ccccc3nc2n1CCc1ccccc1 | > 11 µM (inactive)
CC1=CC(C)(C)N2C(=O)C3(C(C#N)=C(N)OC4=C3C(=O)CC(C)(C)C4)c3cc(C)cc1c32 (configuration not stated) | > 11 µM (inactive)
Oc1ccc2ccccc2c1C=Nc1ccc(N2CCOCC2)cc1 | > 11 µM (inactive)
Cc1ncc(CO)c(/C=N/NC(=O)c2cc(Br)ccc2O)c1O | > 11 µM (inactive)
Clc1ccc(C2=CC(c3ccco3)n3ncnc3N2)cc1 (configuration not stated) | > 11 µM (inactive)
OCCOc1ccc(C2=NCCO2)cc1 | > 11 µM (inactive)
Cc1ccc([N+](=O)[O-])cc1S(=O)(=O)Nc1ccc(O)c(Sc2ncn[nH]2)c1 | > 11 µM (inactive)
C=CCn1c(=O)/c(=C\c2ccsc2)s/c1=C(/C#N)C(=O)NCCN1CCOCC1 | > 11 µM (inactive)

SMILES | EC50
Cc1nc(N2CCN(Cc3ccccc3)CC2)c(C#N)c2c1COC(C)(C)C2 | > 11 µM (inactive)
COCCNC(=O)C1Nc2ccc(C(F)(F)F)cc2C2C=CCC12 (configuration not stated) | > 11 µM (inactive)
Nc1c(C(=O)N/N=C/c2cccnc2)oc2nc(-c3ccccc3)cc(-c3ccco3)c12 | > 11 µM (inactive)
O=c1[nH]c(=O)n(Cc2ccccc2)c(O)c1C=Nc1ccc(CN2CCOCC2)cc1 | > 11 µM (inactive)
Cc1cccc(NC(=O)CN2C(=O)N/C(=C\c3cccn3-c3cccc(C(=O)O)c3)C2=O)c1 | > 11 µM (inactive)
O=c1oc2ccc(Cl)cc2nc1/C=C(\O)c1ccco1 | > 11 µM (inactive)
O=C(Nc1cc(=O)[nH]c2ncnn12)c1ccc(Cl)cc1Cl | > 11 µM (inactive)
CC1OC(Oc2c(-c3cc(O)c(O)c(O)c3)oc3cc(O)cc(O)c3c2=O)C(O)C(O)C1O (configuration not stated) | > 11 µM (inactive)
O=c1/c(=C\c2ccc(O)cc2)sc2nc(-c3ccccc3)c(-c3ccccc3)n12 | > 11 µM (inactive)
O=C(N/N=C/c1cccnc1)c1cc(O)c(O)c(O)c1 | > 11 µM (inactive)
COc1cc(C2C(C#N)=C(N)OC3=C2C(=O)CC(C)(C)C3)cc2c1OCO2 (configuration not stated) | > 11 µM (inactive)
Cc1ccc(C)n1-c1ccc(C(=O)O)cc1 | > 11 µM (inactive)
Cc1cc(/C=C2\C(=O)NC(=O)N(c3ccc(Cl)cc3)C2=O)c(C)n1C | > 11 µM (inactive)
N#Cc1cc(NC2CCCC2)c([N+](=O)[O-])cc1C#N | > 11 µM (inactive)
Nc1cccc2c1C(=O)N(c1ccccc1)C2=O | > 11 µM (inactive)
CC1(C)CC(=O)C2=C(C1)Nc1ccccc1S2 | > 11 µM (inactive)
COc1ccc(/C=c2\sc3nc(-c4ccccc4OC)nn3c2=O)c(OC)c1 | > 11 µM (inactive)
CCn1c(=N)c(S(=O)(=O)c2ccccc2)cc2c(=O)n3ccccc3nc21 | > 11 µM (inactive)
COc1cc(NC(=O)CSc2nc3ncnc(N)c3[nH]2)c(C(=O)O)cc1OC | > 11 µM (inactive)
Cc1ccc(C)c(N2CCN(C(=O)c3cc4ccccn4n3)CC2)c1 | > 11 µM (inactive)
COc1ccccc1N1C(=O)C(Cl)=C(Nc2ccccc2O)C1=O | > 11 µM (inactive)
O=C(NCC1CCCO1)c1ccc(CS(=O)(=O)Cc2ccc(F)cc2)o1 (configuration not stated) | > 11 µM (inactive)
Cc1cccn2c(=O)c3cc(C#N)c(=NC(=O)c4cccs4)n(CCCOC(C)C)c3nc12 | > 11 µM (inactive)
